Test results from ChEMBL document CHEMBL1275581, “Detection of the pandemic O25-ST131 human virulent Escherichia coli CTX-M-15-producing clone harboring the qnrB2 and aac(6')-Ib-cr genes in a dog” (2009).
Values after ≈ are worked out from the molar mass of the structure shown.

Key:
Escherichia coli [1] = experiment: (§1) Antimicrobial activity against beta-lactamase CTX-M-15-producing fluoroquinolone-resistant Escherichia coli FMV5825 expressing qnrB2 and aac(6')-Ib-cr and harboring gyrA Ser83Ile and Asp87Asn mutant gene and ParC Ser80Ile and Glu84Val mutant gene obtained from dog with urinary tract infection by broth microdilution method; assay type: functional
Escherichia coli [2] = experiment: microbe, parasite or virus in culture; conditions: J53
Escherichia coli [3] = experiment: Antimicrobial activity against Azide-resistant Escherichia coli J53 by broth microdilution method; assay type: functional
Escherichia coli [4] = experiment: Antimicrobial activity against Escherichia coli harboring qnr gene assessed as resistant isolate; assay type: functional
Escherichia coli [5] = experiment: as §1, with “method in presence of beta-lactamase inhibitor clavulanic acid” for “method”; assay type: functional; conditions: FMV5825, Urine
Escherichia coli [6] = experiment: Antimicrobial activity against Azide-resistant Escherichia coli J53 transconjugant harboring Escherichia coli DH5alpha-5825 qnrB2 gene by broth microdilution method in presence of beta-lactamase inhibitor clavulanic acid; assay type: functional
Escherichia coli [7] = experiment: Antimicrobial activity against Azide-resistant Escherichia coli J53 by broth microdilution method in presence of beta-lactamase inhibitor clavulanic acid; assay type: functional
Escherichia coli [8] = experiment: Antimicrobial activity against Azide-resistant Escherichia coli J53 transconjugant harboring Escherichia coli DH5alpha-5825 qnrB2 gene by broth microdilution method in presence of beta-lactamase inhibitor Tazobactam; assay type: functional
Escherichia coli [9] = experiment: as §1, with “method in presence of beta-lactamase inhibitor Tazobactam” for “method”; assay type: functional; conditions: FMV5825, Urine
Escherichia coli [10] = experiment: Antimicrobial activity against Azide-resistant Escherichia coli J53 by broth microdilution method in presence of beta-lactamase inhibitor Tazobactam; assay type: functional

Molecule | MIC (Escherichia coli [1]; FMV5825, Urine) | MIC (Escherichia coli [2]) | MIC (Escherichia coli [3]) | further results
CCn1cc(C(=O)O)c(=O)c2ccc(C)nc21 [NALIDIXIC ACID] | > 256 µg/mL | 16 µg/mL (≈ 68.9 µM) | 4 µg/mL (≈ 17.2 µM) | Activity (Escherichia coli [4]): 34%
NCC[C@H](O)C(=O)N[C@@H]1C[C@H](N)[C@@H](O[C@H]2O[C@H](CN)[C@@H](O)[C@H](O)[C@H]2O)[C@H](O)[C@H]1O[C@H]1O[C@H](CO)[C@@H](O)[C@H](N)[C@H]1O [AMIKACIN] | 16 µg/mL (≈ 27.3 µM) | 2 µg/mL (≈ 3.42 µM) | 0.5 µg/mL (≈ 0.854 µM) | –
COCC1=C(C(=O)O)N2C(=O)[C@@H](NC(=O)/C(=N\OC)c3csc(N)n3)[C@H]2SC1 [CEFPODOXIME] | > 4 µg/mL | > 4 µg/mL | ≤ 1 µg/mL | –
CC1(C)S[C@@H]2[C@H](NC(=O)[C@H](N)c3ccc(O)cc3)C(=O)N2[C@H]1C(=O)O [AMOXICILLIN] | – | – | – | MIC (Escherichia coli [5]): 8 µg/mL; MIC (Escherichia coli [6]): 8 µg/mL; MIC (Escherichia coli [7]): 2 µg/mL
GENTAMICIN | – | – | 0.25 µg/mL | MIC (Escherichia coli [1]; Urine): 32 µg/mL
C[C@@H](O)[C@H]1C(=O)N2C(C(=O)O)=C(S[C@@H]3CN[C@H](C(=O)Nc4cccc(C(=O)O)c4)C3)[C@H](C)[C@H]12 | ≤ 0.5 µg/mL | ≤ 0.5 µg/mL | ≤ 0.5 µg/mL | –
C[C@H]1COc2c(N3CCN(C)CC3)c(F)cc3c(=O)c(C(=O)O)cn1c23.C[C@H]1COc2c(N3CCN(C)CC3)c(F)cc3c(=O)c(C(=O)O)cn1c23.O [LEVOFLOXACIN] | 32 µg/mL | 0.031 µg/mL | 0.031 µg/mL | –
NC[C@H]1O[C@H](O[C@H]2[C@H](O)[C@@H](O[C@H]3O[C@H](CO)[C@@H](O)[C@H](N)[C@H]3O)[C@H](N)C[C@@H]2N)[C@H](N)C[C@@H]1O [TOBRAMYCIN] | > 8 µg/mL | > 8 µg/mL | ≤ 2 µg/mL | –
CO/N=C(\C(=O)N[C@@H]1C(=O)N2C(C(=O)[O-])=C(C[N+]3(C)CCCC3)CS[C@H]12)c1csc(N)n1 | > 16 µg/mL | > 16 µg/mL | ≤ 1 µg/mL | –
O=C(O)c1cn(C2CC2)c2cc(N3CCNCC3)c(F)cc2c1=O [CIPROFLOXACIN] | 128 µg/mL (≈ 386 µM) | – | – | Activity (Escherichia coli [4]): 26%
CO[C@@]1(NC(=O)Cc2cccs2)C(=O)N2C(C(=O)O)=C(COC(N)=O)CS[C@@H]21 [CEFOXITIN] | ≤ 4 µg/mL | ≤ 4 µg/mL | ≤ 4 µg/mL | –
CC(C)(O/N=C(\C(=O)N[C@@H]1C(=O)N2C(C(=O)[O-])=C(C[n+]3ccccc3)CS[C@H]12)c1csc(N)n1)C(=O)O [CEFTAZIDIME] | 128 µg/mL (≈ 234 µM) | 64 µg/mL (≈ 117 µM) | ≤ 1 µg/mL | MIC (Escherichia coli [5]): ≤ 0.25 µg/mL; MIC (Escherichia coli [6]): ≤ 0.25 µg/mL; MIC (Escherichia coli [7]): ≤ 0.25 µg/mL
CCn1cc(C(=O)O)c(=O)c2cc(F)c(N3CCNCC3)cc21 [NORFLOXACIN] | 256 µg/mL (≈ 802 µM) | 0.5 µg/mL (≈ 1.57 µM) | 0.062 µg/mL (≈ 0.194 µM) | –
CCN1CCN(C(=O)N[C@@H](C(=O)N[C@@H]2C(=O)N3[C@@H]2SC(C)(C)[C@@H]3C(=O)O)c2ccccc2)C(=O)C1=O [PIPERACILLIN] | > 64 µg/mL | > 64 µg/mL | ≤ 8 µg/mL | MIC (Escherichia coli [8]): ≤ 8 µg/mL; MIC (Escherichia coli [9]): ≤ 8 µg/mL; MIC (Escherichia coli [10]): ≤ 8 µg/mL
CC1(C)S[C@@H]2[C@H](NC(=O)[C@H](C(=O)O)c3ccsc3)C(=O)N2[C@H]1C(=O)O [TICARCILLIN] | > 64 µg/mL | > 64 µg/mL | ≤ 16 µg/mL | –
C[C@H]1[C@H](NC(=O)/C(=N\OC(C)(C)C(=O)O)c2csc(N)n2)C(=O)N1S(=O)(=O)O [AZTREONAM] | > 16 µg/mL | > 16 µg/mL | ≤ 1 µg/mL | –
C[C@@H](O)[C@H]1C(=O)N2C(C(=O)O)=C(SCCNC=N)C[C@H]12 [IMIPENEM ANHYDROUS] | ≤ 1 µg/mL | ≤ 1 µg/mL | ≤ 1 µg/mL | –
CC1(C)S[C@@H]2[C@H](NC(=O)[C@H](N)c3ccccc3)C(=O)N2[C@H]1C(=O)O [AMPICILLIN] | > 16 µg/mL | > 16 µg/mL | ≤ 4 µg/mL | –
C[C@@H](O)[C@H]1C(=O)N2C(C(=O)O)=C(S[C@@H]3CN[C@H](C(=O)N(C)C)C3)[C@H](C)[C@H]12 [MEROPENEM] | ≤ 2 µg/mL | ≤ 2 µg/mL | ≤ 2 µg/mL | –
CO/N=C(\C(=O)N[C@@H]1C(=O)N2C(C(=O)O)=C(COC(N)=O)CS[C@H]12)c1ccco1 [CEFUROXIME] | > 16 µg/mL | > 16 µg/mL | 1 µg/mL (≈ 2.36 µM) | –
Cc1nnc(SCC2=C(C(=O)O)N3C(=O)[C@@H](NC(=O)Cn4cnnn4)[C@H]3SC2)s1 [CEFAZOLIN] | > 16 µg/mL | > 16 µg/mL | ≤ 16 µg/mL | –
CO[C@@]1(NC(=O)C2SC(=C(C(N)=O)C(=O)O)S2)C(=O)N2C(C(=O)O)=C(CSc3nnnn3C)CS[C@@H]21 (some centres not stated) [CEFOTETAN] | ≤ 16 µg/mL | ≤ 16 µg/mL | ≤ 16 µg/mL | –
CO/N=C(\C(=O)N[C@@H]1C(=O)N2C(C(=O)O)=C(COC(C)=O)CS[C@H]12)c1csc(N)n1 [CEFOTAXIME] | > 64 µg/mL | > 64 µg/mL | ≤ 1 µg/mL | MIC (Escherichia coli [5]): ≤ 0.25 µg/mL; MIC (Escherichia coli [6]): ≤ 0.25 µg/mL; MIC (Escherichia coli [7]): ≤ 0.25 µg/mL
